Measured values published in PubChem BioAssay AID248 (DTP/NCI, 2004).
“And” between values parts separate entries of the source, which are not always exact repeats. Equal entries are not always repeated. Toxic doses and inconclusive results are not listed. No stated cut-off is given here; in the data, active means T/C of 150% or more; inactive means T/C below 125%.

Test system: L1210 leukemia ip in BDF1 mice, survival T/C
Experiment: NCI In Vivo Anticancer Drug Screen. Data for tumor model L1210 Leukemia (intraperitoneal) in B6D2F1 (BDF1) mice
Conditions: endpoint: mean survival time, higher = longer survival
Procedure, shortened: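 Transplantable tumor model; survival measured in treated vs vehicle control mice. Value = treated/control.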

[1] = dose: 100.0 mg/kg/injection, schedule: Q01DX009 (ip), vehicle: Klucel (hydroxypropylcellulose) (HPC)
[2] = dose: 200.0 mg/kg/injection, schedule: Q01DX009 (ip), vehicle: Klucel (hydroxypropylcellulose) (HPC)
[3] = dose: 400.0 mg/kg/injection, schedule: Q01DX009 (ip), vehicle: Klucel (hydroxypropylcellulose) (HPC)
[4] = dose: 100.0 mg/kg/injection, schedule: Q04DX003 (ip), vehicle: saline with Tween-80
[5] = dose: 200.0 mg/kg/injection, schedule: Q04DX003 (ip), vehicle: saline with Tween-80
[6] = dose: 400.0 mg/kg/injection, schedule: Q04DX003 (ip), vehicle: saline with Tween-80
[7] = dose: 100.0 mg/kg/injection, schedule: Q04DX003 (ip), vehicle: saline
[8] = dose: 200.0 mg/kg/injection, schedule: Q04DX003 (ip), vehicle: saline
[9] = dose: 100.0 mg/kg/injection, schedule: Q04DX003 (ip), vehicle: Klucel (hydroxypropylcellulose) (HPC)
[10] = dose: 200.0 mg/kg/injection, schedule: Q04DX003 (ip), vehicle: Klucel (hydroxypropylcellulose) (HPC)
[11] = dose: 400.0 mg/kg/injection, schedule: Q04DX003 (ip), vehicle: Klucel (hydroxypropylcellulose) (HPC)
[12] = dose: 100.0 mg/kg/injection, schedule: Q01DX001 (ip), vehicle: Klucel (hydroxypropylcellulose) (HPC)
[13] = dose: 200.0 mg/kg/injection, schedule: Q01DX001 (ip), vehicle: Klucel (hydroxypropylcellulose) (HPC)
[14] = dose: 400.0 mg/kg/injection, schedule: Q01DX001 (ip), vehicle: Klucel (hydroxypropylcellulose) (HPC)
[15] = dose: 100.0 mg/kg/injection, schedule: Q01DX009 (ip), vehicle: saline with Tween-80
[16] = dose: 100.0 mg/kg/injection, schedule: Q04DX002 (ip), vehicle: saline with Tween-80
[17] = dose: 200.0 mg/kg/injection, schedule: Q01DX009 (ip), vehicle: saline with Tween-80
[18] = dose: 200.0 mg/kg/injection, schedule: Q04DX002 (ip), vehicle: saline with Tween-80
[19] = dose: 400.0 mg/kg/injection, schedule: Q01DX009 (ip), vehicle: saline with Tween-80
[20] = dose: 400.0 mg/kg/injection, schedule: Q04DX002 (ip), vehicle: saline with Tween-80
[21] = dose: 400.0 mg/kg/injection, schedule: Q04DX003 (ip), vehicle: saline
[22] = dose: 100.0 mg/kg/injection, schedule: Q01DX001 (ip), vehicle: saline
[23] = dose: 200.0 mg/kg/injection, schedule: Q01DX001 (ip), vehicle: saline

Measured: T/C

O=C1C(N2CCOCC2)=C(N2CC2)C(=O)C(N2CCOCC2)=C1N1CC1
inactive: dose: 0.19 mg/kg/injection, schedule: Q04DX003 (ip), vehicle: saline 92 % of control and 102 % of control | dose: 0.37 mg/kg/injection, schedule: Q04DX003 (ip), vehicle: saline 94 % of control and 107 % of control | dose: 0.75 mg/kg/injection, schedule: Q01DX009 (ip), vehicle: saline 105 % of control and 118 % of control | dose: 0.75 mg/kg/injection, schedule: Q04DX003 (ip), vehicle: saline 107 % of control and 113 % of control | dose: 1.5 mg/kg/injection, schedule: Q01DX009 (ip), vehicle: saline 120 % of control | dose: 1.5 mg/kg/injection, schedule: Q04DX003 (ip), vehicle: saline 105 % of control | dose: 3.0 mg/kg/injection, schedule: Q04DX003 (ip), vehicle: saline 122 % of control | dose: 3.12 mg/kg/injection, schedule: Q01DX001 (ip), vehicle: saline 86 % of control | dose: 12.0 mg/kg/injection, schedule: Q04DX003 (ip), vehicle: saline 115 % of control

O=S(=O)(ON=C(c1ccc(Cl)cc1)c1ccc(Cl)cc1)c1ccccc1
inactive: dose: 100.0 mg/kg/injection, schedule: Q01DX009 (ip), vehicle: carboxymethylcellulose (CMC) 98 % of control | dose: 100.0 mg/kg/injection, schedule: Q04DX002 (ip), vehicle: carboxymethylcellulose (CMC) 101 % of control and 92 % of control | dose: 100.0 mg/kg/injection, schedule: Q04DX003 (ip), vehicle: carboxymethylcellulose (CMC) 106 % of control | dose: 200.0 mg/kg/injection, schedule: Q01DX009 (ip), vehicle: carboxymethylcellulose (CMC) 95 % of control and 92 % of control | dose: 200.0 mg/kg/injection, schedule: Q04DX002 (ip), vehicle: carboxymethylcellulose (CMC) 102 % of control and 111 % of control | dose: 200.0 mg/kg/injection, schedule: Q04DX003 (ip), vehicle: carboxymethylcellulose (CMC) 93 % of control | dose: 400.0 mg/kg/injection, schedule: Q01DX009 (ip), vehicle: carboxymethylcellulose (CMC) 95 % of control and 101 % of control | dose: 400.0 mg/kg/injection, schedule: Q04DX002 (ip), vehicle: carboxymethylcellulose (CMC) 95 % of control and 101 % of control | dose: 400.0 mg/kg/injection, schedule: Q04DX003 (ip), vehicle: carboxymethylcellulose (CMC) 93 % of control

CCCCN(CCCC)C(=S)S[As](SC(=S)N(CCCC)CCCC)SC(=S)N(CCCC)CCCC
inactive: [1] 97 % of control | [2] 90 % of control | [3] 97 % of control

COC(=O)C1C=Cc2ccccc21 (stereo not drawn)
inactive: [4] 104 % of control | [5] 93 % of control | [6] 102 % of control

CC1(Br)OC(=O)C(C)(Br)OC1=O (stereo not drawn)
inactive: [7] 96 % of control | [8] 96 % of control

CCN(CC)S(=O)(=O)c1ccc(C(=O)O)cc1
inactive: [1] 101 % of control | [9] 101 % of control | [2] 104 % of control | [10] 105 % of control | [3] 103 % of control | [11] 92 % of control

CCCCB1OCCCO1
inactive: [12] 98 % of control | [13] 88 % of control | [14] 92 % of control

CCOC(=O)c1ccc(NS(=O)(=O)c2c(C)cc(C)cc2C)cc1
inactive: [15] 104 % of control and 90 % of control | [16] 97 % of control and 103 % of control | [7] 95 % of control | [17] 95 % of control and 103 % of control | [18] 89 % of control and 91 % of control | [8] 96 % of control | [19] 95 % of control and 105 % of control | [20] 97 % of control and 87 % of control | [21] 91 % of control

CN(C)C=C1C(=O)c2ccccc2C1=O
inactive: [4] 105 % of control | [5] 107 % of control

CC1(C)CC([NH-])CC(C)(C)N1O.CC1(C)CC([NH-])CC(C)(C)N1O.[Cl][Pd][Cl]
inactive: [7] 94 % of control | [8] 105 % of control | [21] 90 % of control

CCOC(=O)c1c[nH]c2cc(OCC3CC3)c(OCC3CC3)cc2c1=O
inactive: [15] 92 % of control

C=CCCC(C)=O
inactive: [16] 102 % of control | [18] 102 % of control | [20] 102 % of control

S=C1N/N=C/NN/C=N/N1
inactive: dose: 10.0 mg/kg/injection, schedule: Q01DX001 (ip), vehicle: saline 105 % of control | dose: 20.0 mg/kg/injection, schedule: Q01DX001 (ip), vehicle: saline 94 % of control

C(=N/N=C/c1cccnc1)/c1cccnc1
inactive: dose: 100.0 mg/kg/injection, schedule: Q01DX001 (ip), vehicle: other 104 % of control | dose: 200.0 mg/kg/injection, schedule: Q01DX001 (ip), vehicle: other 110 % of control | dose: 400.0 mg/kg/injection, schedule: Q01DX001 (ip), vehicle: other 110 % of control

Cc1ncc(C(O)(c2ccccc2)C(C)C)n1Cc1ccccc1 (stereo not drawn)
inactive: dose: 100.0 mg/kg/injection, schedule: Q01DX001 (ip), vehicle: saline with Tween-80 94 % of control | [15] 95 % of control and 96 % of control | [16] 95 % of control and 97 % of control | [4] 101 % of control | dose: 200.0 mg/kg/injection, schedule: Q01DX001 (ip), vehicle: saline with Tween-80 92 % of control | [17] 95 % of control and 108 % of control | [18] 93 % of control and 113 % of control | [5] 97 % of control | dose: 400.0 mg/kg/injection, schedule: Q01DX001 (ip), vehicle: saline with Tween-80 94 % of control | [19] 102 % of control | [20] 98 % of control and 103 % of control | [6] 101 % of control

c1ccc2c(c1)oc1cc3ccncc3cc12
inactive: [22] 96 % of control | [23] 94 % of control | dose: 400.0 mg/kg/injection, schedule: Q01DX001 (ip), vehicle: saline 102 % of control

O=c1oc(Cl)cc2oc(=O)n(-c3ccccc3)c(=O)c12
inactive: dose: 6.25 mg/kg/injection, schedule: Q01DX009 (ip), vehicle: saline with Tween-80 106 % of control | dose: 12.5 mg/kg/injection, schedule: Q01DX009 (ip), vehicle: saline with Tween-80 98 % of control | dose: 25.0 mg/kg/injection, schedule: Q01DX009 (ip), vehicle: saline with Tween-80 93 % of control and 109 % of control | dose: 25.0 mg/kg/injection, schedule: Q04DX002 (ip), vehicle: saline with Tween-80 98 % of control | dose: 50.0 mg/kg/injection, schedule: Q04DX002 (ip), vehicle: saline with Tween-80 102 % of control | [16] 96 % of control and 98 % of control

O=C(O)c1cc2ccc3ccccc3c2s1
inactive: [22] 87 % of control | [23] 88 % of control

CCCCC(NC(C)=O)C(=O)O (stereo not drawn)
inactive: [1] 96 % of control and 100 % of control | [9] 90 % of control | [2] 86 % of control and 97 % of control | [10] 97 % of control | [3] 88 % of control | [11] 90 % of control

CCOC1(C(=O)O)CC(c2ccc(Cl)cc2)Nc2c(OC)ccc(OC)c21 (stereo not drawn)
inactive: [4] 98 % of control | [5] 93 % of control

COC(=O)C1CCC(NC(=O)NCCCl)CC1 (stereo not drawn)
inactive: [12] 95 % of control and 103 % of control | [13] 93 % of control and 97 % of control | [14] 95 % of control

CCC[CH2][Sn]([CH2]CC#N)([CH2]CCC)[CH2]CCC
inactive: dose: 25.0 mg/kg/injection, schedule: Q04DX002 (ip), vehicle: saline 97 % of control | dose: 50.0 mg/kg/injection, schedule: Q04DX002 (ip), vehicle: saline 94 % of control

O=c1[nH]cc(COCC(F)(F)F)c(=O)[nH]1
inactive: dose: 50.0 mg/kg/injection, schedule: Q01DX005 (ip), vehicle: other 106 % of control | dose: 100.0 mg/kg/injection, schedule: Q01DX005 (ip), vehicle: other 95 % of control | dose: 200.0 mg/kg/injection, schedule: Q01DX005 (ip), vehicle: other 106 % of control

O=C(COc1ccccc1)Oc1c(Cl)c(Cl)c(Cl)c(Cl)c1Cl
inactive: [12] 96 % of control | [9] 103 % of control | [13] 92 % of control | [10] 103 % of control | [14] 98 % of control | [11] 95 % of control
